# Experimental data taken from publication PMC8122671, “New Succinimides with Potent Anticancer Activity: Synthesis, Activation of Stress Signaling Pathways and Characterization of Apoptosis in Leukemia and Cervical Cancer Cells” (International Journal of Molecular Sciences, 2021).
# Structures can show the parent of a compound that is named as a salt. Where two headings read alike, the source gives them in different places.
# Assays:
# [1] = Lipophilicity (logkw) by reversed-phase chromatography (RP-HPLC); format: physicochemical; details: for logkw (Experimental): extrapolated to pure water; for logkw (Table S2): intercept of logk vs methanol fraction, n = 4
# Description: The main goal of the synthetic part was the synthesis of new derivatives of dicarboximides with decreased lipophilicity in comparison to the lead compounds, i.e., Ia–Ie and II. To reduce the lipophilicity of the new dicarboximides, a hydroxyalkyl chain connected with an aliphatic amine was introduced to the imides (Scheme 1). At the same time, the imide scaffold in derivatives from group 2 and 3 was the same as in lead compounds Ia–Ie and II, respectively (Figure 1). The structure of the imide was changed in derivatives 1b–1g. The lipophilicity of new derivatives was calculated using the Osiris Property Explorer program. For some compounds, lipophilicity was determined experimentally by a reversed-phase chromatography (detailed description is given in Materials and Methods and in the Supplementary Data, Table S2). Table 1 summarizes the calculated (clogP) and experimental (logkw) parameters of the lipophilicity of new derivatives.
# The reversed-phase high-performance liquid chromatography (RP-HPLC) analysis was performed on a Merck–Hitachi LaChrom Elite System (Merck, Darmstadt, Germany) with diode array detector L-2455, thermostat L-2300, pump L-2130, and autosampler L-2200 and with the Waters XTerra MS RP-18 (3.5 μm, 150 × 4.6 mm) chromatographic column (Waters, Milford, MA, USA) as the stationary phase. The mobile phase consisted of methanol, water, and 0.1% (v/v) formic acid and was degassed by the use of the built-in membrane degasser. The methanol gradient grade for HPLC was purchased from Merck (Merck, Darmstadt, Germany) and formic acid from Polish Reagents (Polish Reagents, Gliwice, Poland); double-distilled water was used. Then, 5 μL of methanolic solutions (0.1%; m/v) of selected samples were applied to the chromatographic column by the use of an autosampler Hitachi L-2200 (LaChrom Elite, Hitachi-Merck, Darmstadt, Germany). The analysis was performed with the flow rate of 0.7 mL min^−1 in isocratic mode using various concentrations of organic modifier (methanol) in binary polar mobile phases; percentages of methanol in water were 45–70% (%, v/v) and changed by 5% per step. Chromatograms were detected at 254 nm and the temperature of the column was 25 °C. All experiments were repeated in triplicate, and the final results were taken to be the arithmetic means. Dead time was measured by the use of uracil (Calbiochem. Merck, Darmstadt, Germany). Statistical and regression analyses were performed using Statistica (ver. 13.3 for Windows). The chromatographic lipophilicity parameters ( logkW ) for selected samples were obtained by the extrapolation of the retention parameter logk to pure water, according to Equation (1):(1) logk=logkw−S·ϕ; where logkW is the value of the retention factor of a substance in pure water, S is the slope of the regression curve, and ϕ is the concentration of the organic modifier. The values of logk were calculated based on the raw HPLC data using the formula (2):(2) logk=logtR−t0/t0; where tR is the retention time and t0 is the dead retention time (determined for uracil).
# The chromatographic lipophilicity parameters (logkௐ ) for selected samples were ob‐ tained by the extrapolation of the retention parame te r logk to pure water, according to […]
# where logkௐ is the value of the retention factor of a substance in pure water, S is the slope of the regression curve, and φ is the concentration of the organic modifier. The values of logk were ca lcula ted based on the raw HPLC data using the formula: […]
# logk ൌ log ሺ௧ೃ ି ௧బ௧బ ሻ (2) where tோ is the retention time and t଴ is the dead retention time (determined for ura‐ cil). The goodness of fit of the equation (1) to the experimental data was classified accord‐ ing to Jaffe (Jaffe, H. H. A Reexamination of the Hammet Equation. Chem. Rev. 1953, 53, In our RP‐HPLC experiments, the goodness of fit of the equation to the experi‐ mental data are excellent in most ca ses (r > 0.99). The F statistic val ues are, in all cases, […]
# [2] = test system: K562 (myelogenous leukemia cell line); assay: MTT cytotoxicity assay, K562; format: cell-based, human; details: Homo sapiens, K562, 48 h, 48 h incubation; average (SD) of three experiments; read-out: IC50 K562
# Method: (§1) The cytotoxicity of new derivatives of dicarboximides was tested in HeLa (cervix carcinoma cell line), K562 (myelogenous leukemia cell line), MOLT-4 (Human T-Lymphoid Cell Line), and HUVEC (normal endothelial) cells. First, the viability of cells was determined after 48 h incubation with the screened compounds used at the concentration of 100 μM (data not shown). […] Cells exposed to 1% DMSO (as vehicle) served as the control with 100% survival.
# (§2) Human umbilical vein endothelial cells (Life Technologies, Carlsbad, CA, USA) were cultured (according to the manufacturer’s instructions) in Medium 200 containing low serum growth supplement; 1 × 10^4 cells were seeded on each well on a 96-well plate (Nunc, Roskilde, Denmark). The HeLa (human cervix carcinoma), K562, and MOLT-4 (leukemia) cells were cultured in RPMI 1640 medium supplemented with antibiotics and 10% fetal calf serum in a 5% CO2–95% air atmosphere; 7 × 10^3 cells were seeded on each well on a 96-well plate (Nunc). Twenty-four hours later, cells were exposed to the test compounds for additional 48 hours. Stock solutions of test compounds were freshly prepared in DMSO. The final concentrations of the compounds tested in the cell cultures were 2 × 10^−1, 1 × 10^−1, 5 × 10^−2, 1 × 10^−2, 1 × 10^−3, and 1 × 10^−4 mM. The concentration of DMSO in the cell culture medium was 1%. The values of IC50 (the concentration of test compound required to reduce the cell survival fraction to 50% of the control) were calculated from dose–response curves and used as a measure of cellular sensitivity to a given treatment. The cytotoxicity of all compounds was determined by the MTT [3-(4,5-dimethylthiazol-2-yl)-2,5-diphenyltetrazolium bromide; Sigma, St. Louis, MO, USA] assay. Briefly, after 24 or 48 h of incubation with drugs, the cells were treated with the MTT reagent, and incubation was continued for 2 h. MTT-formazan crystals were dissolved in 20% SDS and 50% DMF at pH 4.7, and absorbance was read at 570 and 650 nm on a microplate reader FLUOstar Omega (BMG Labtech, Offenburg, Germany). As a control (100% viability), we used cells grown in the presence of the vehicle (1% DMSO) only.
# [3] = test system: MOLT-4 (Human T-Lymphoid Cell Line); assay: MTT cytotoxicity assay, MOLT-4; format: cell-based; details: read-out: IC50 MOLT-4
# Method: as §1, §2
# [4] = test system: HeLa (human cervix carcinoma) cells; assay: MTT cytotoxicity assay, HeLa; format: cell-based; details: 48 h incubation, average (SD) of three experiments, read-out: IC50 HeLa
# Method: as §1, §2
# [5] = test system: HUVEC (normal endothelial) cells; assay: MTT cytotoxicity assay, HUVEC; format: cell-based; details: Homo sapiens, read-out: IC50 HUVEC
# Method: as §1, §2
# [6] = MOLT-4, 48 h incubation, average (SD) of three experiments
# [7] = 48 h incubation, average (SD) of three experiments
melting point [°C],SMILES,IC50 [2] [µM],"IC50 [3, 6] [µM]",IC50 [4] [µM],"IC50 [5, 7] [µM]",further results
192 to 196,"CCCCN(CCCC)CC(O)CN1C(=O)C2C(C1=O)C1(C)C(=O)C2(C)C(c2ccccc2)=C1c1ccccc1 (stereo not shown) (as salt: HCl) [1e, 4-[3-(dibutylamino)-2-hydroxypropyl]-1,7-dimethyl-8,9-diphenyl-4-azatricyclo [5.2.1.0^2,6]dec-8-ene-3,5,10-trione]",,,,,
170 to 171,"CC12C(=O)C(C)(C(c3ccccc3)=C1c1ccccc1)C1C(=O)N(CC(O)CN3CCCCC3)C(=O)C12 (stereo not shown) (as salt: HCl) [1f, 4-[2-hydroxy-3-(piperidin-1-yl)propyl]-1,7-dimethyl-8,9-diphenyl-4-azatricyclo[5.2.1.0^2,6]dec-8-ene-3,5,10-trione]",,,,,
214 to 216,"CC12C(=O)C(C)(C(c3ccccc3)=C1c1ccccc1)C1C(=O)N(CCN3CCCCC3)C(=O)C12 (stereo not shown) (as salt: HCl) [1i, 4-[2-(piperidin-1-yl)ethy]-1,7-dimethyl-8,9-diphenyl-4-azatricyclo[5.2.1.0^2,6]dec-8-ene-3,5,10-trione]",,,,,
227 to 228,"CC12C(=O)C(C)(C(c3ccccc3)=C1c1ccccc1)C1C(=O)N(CCN3CCOCC3)C(=O)C12 (stereo not shown) (as salt: HCl) [1j, 4-[2-(morpholin-4-yl)ethy]-1,7-dimethyl-8,9-diphenyl-4-azatricyclo[5.2.1.0^2,6]dec-8-ene-3,5,10-trione]",,,,,
92 to 110,"CCCCN(CCCC)CC(O)CN1C(=O)C2C(C1=O)C1(CC)C(=O)C2(CC)C(c2ccccc2)=C1c1ccccc1 (stereo not shown) (as salt: HCl) [2e, 4-[3-(dibutylamino)-2-hydroxypropyl]-1,7-diethyl-8,9-diphenyl-4-azatricyclo[5.2.1.0^2,6]dec-8-ene-3,5,10-trione]",,,,,
190 to 195,"CCC12C(=O)C(CC)(C(c3ccccc3)=C1c1ccccc1)C1C(=O)N(CC(O)CN3CCCCC3)C(=O)C12 (stereo not shown) (as salt: HCl) [2f, 4-[2-hydroxy-3-(piperidin-1-yl)propyl]-1,7-diethyl-8,9-diphenyl-4-azatricyclo[5.2.1.0^2,6]dec-8-ene-3,5,10-trione]",,,,,
237 to 238,"CCCCN(CCCC)CC(O)CN1C(=O)C2C(C1=O)C1(c3ccccc3)CC2(c2ccccc2)C(c2ccccc2)=C1c1ccccc1 (stereo not shown) (as salt: HCl) [3e, 4-[3-(dibutylamino)-2-hydroxypropyl]-1,7,8,9-tetraphenyl-4-azatricyclo[5.2.1.0^2,6]dec-8-ene-3,5-dione]",,,,,
268 to 270,"O=C1C2C(C(=O)N1CC(O)CN1CCCCC1)C1(c3ccccc3)CC2(c2ccccc2)C(c2ccccc2)=C1c1ccccc1 (stereo not shown) (as salt: HCl) [3f, 4-[2-hydroxy-3-(piperidin-1-yl)propyl]-1,7,8,9-tetraphenyl-4-azatricyclo[5.2.1.0^2,6]dec-8-ene-3,5-dione]",,,,,
,"CCN(CC)CC(O)CN1C(=O)C2C(C1=O)C1(C)C(=O)C2(C)C(c2ccccc2)=C1c1ccccc1 (stereo not shown) [1d, 4-[3-(diethylamino)-2-hydroxypropyl]-1,7-dimethyl-8,9-diphenyl-4-azatricyclo[5.2.1.0^2,6]dec-8-ene-3,5,10-trione]",39,37,59,22,logkw (Experimental) [1]: 4.87; logkw (Table S2) [1]: 4.8734
,"CCNCC(O)CN1C(=O)C2C(C1=O)C1(CC)C(=O)C2(CC)C(c2ccccc2)=C1c1ccccc1 (stereo not shown) [2b, 4-[3-(ethylamino)-2-hydroxypropyl]-1,7-diethyl-8,9-diphenyl-4-azatricyclo [5.2.1.0^2,6]dec-8-ene-3,5,10-trione]",8,14,26,3.4,logkw (Experimental) [1]: 5.08; logkw (Table S2) [1]: 5.0846
,"CCC12C(=O)C(CC)(C(c3ccccc3)=C1c1ccccc1)C1C(=O)N(CC(O)CN3CCOCC3)C(=O)C12 (stereo not shown) [2g, 4-[-2-hydroxy-3-(morpholin-4-yl)propyl]-1,7-diethyl-8,9-diphenyl-4-azatricyclo[5.2.1.0^2,6]dec-8-ene-3,5,10-trione]",20,18,23,17,logkw (Experimental) [1]: 4.98; logkw (Table S2) [1]: 4.9763
,"O=C1C2C(C(=O)N1CC(O)CN1CCOCC1)C1(c3ccccc3)CC2(c2ccccc2)C(c2ccccc2)=C1c1ccccc1 (stereo not shown) [3g, 4-[-2-hydroxy-3-(morpholin-4-yl)propyl]-1,7,8,9-tetraphenyl-4-azatricyclo[5.2.1.0^2,6]dec-8-ene-3,5-dione]",31,5.2,120,17,logkw (Experimental) [1]: 6.28; logkw (Table S2) [1]: 6.2759
186 to 187,"CC12C(=O)C(C)(C(c3ccccc3)=C1c1ccccc1)C1C(=O)N(CCO)C(=O)C12 (stereo not shown) [compound 4, 4-(2-hydroxyethyl)-1,7-dimethyl-8,9-diphenyl-4-azatricyclo[5.2.1.0^2,6]dec-8-ene-3,5,10-trione]",105,71,61,56,

SMILES,melting point [°C],IC50 [2] [µM],"IC50 [3, 6] [µM]",IC50 [4] [µM],"IC50 [5, 7] [µM]",further results
"CC12C(=O)C(C)(C(c3ccccc3)=C1c1ccccc1)C1C(=O)N(CCCl)C(=O)C12 (stereo not shown) [1h, 4-(2-chloroethyl)-1,7-dimethyl-8,9-diphenyl-4-azatricyclo[5.2.1.0^2,6]dec-8-ene-3,5,10-trione]",190 to 191,,,,,"IC50 ([3]; MOLT-4, 48 h): 20 µM; IC50 ([5]; 48 h): 64 µM"
